One may read the MIC90 as an inhibitory concentration at the 90% level, which refers to growth in some studies and to a panel of isolates in others. The MIC is the lowest concentration that inhibits growth of the organism.

This note sets out measurements from US20220184071A1, “GEPOTIDACIN FOR USE IN THE TREATMENT OF BACTERIAL URINARY TRACT INFECTIONS” (GlaxoSmithKline Intellectual Property Development Limited, priority 2019, published 2022).

In brackets after ≈: the same amount, converted by molar mass. Like-named read-outs stand apart in the source and are kept apart here. Some results are limits rather than exact numbers.

In assay [1] the test system is gram-positive anaerobe organisms combined. In words: MIC by CLSI agar dilution, Example 6 Method 1. In kind it is cell-based. The note with it: gram-positive anaerobes combined; for MIC90: read-out: overall MIC90. How it is done: (§1) Antimicrobial activity was determined by agar dilution using the Clinical and Laboratory Standards Institute (CLSI) recommended procedure.
(§2) The compounds were tested in serial two-fold dilutions and the minimum inhibitory concentration (MIC) was determined as the lowest concentration of the compound that inhibited visible growth. Gepotidacin was tested against 333 gram-negative anaerobic and 203 gram-positive anaerobic isolates collected from clinical samples in North America and Europe from 2000 to 2017; the majority collected from 2013 to 2016.
(§3) Ceftriaxone, clindamycin, imipenem, metronidazole, moxifloxacin and piperacillin/tazobactam were included as comparators.
On the technique in general: Agar dilution tests growth on a series of plates holding different concentrations.

For assay [2], the system named is all the gram-negative anaerobe organisms combined. Nature of the assay: MIC by CLSI agar dilution, Example 6 Method 1. In kind it is cell-based. Particulars: all gram-negative anaerobes combined; for MIC90: read-out: overall MIC90. As for the experimental part: as §1, §2, §3
The next assay relates to E. coli. In words: Phase IIa baseline uropathogen susceptibility testing (CLSI broth microdilution). The format is cell-based, Escherichia coli. The note with it: Escherichia coli, baseline visit, read-out: MIC. How it is done: (§4) This phase IIa single center study evaluated the safety, tolerability, pharmacokinetics, and efficacy of oral gepotidacin 1500 mg BID for 5 days in female subjects with acute cystitis. Clean catch mid-stream urine specimens were obtained for quantitative culture by standard methods. Urine samples were taken from all participants pre-treatment (baseline) and at all post-baseline visits. All urine samples were sent to a central laboratory (PPD Global Clinical Laboratories, Highland Heights, Ky., USA) for Gram stain, quantitative culture, pathogen identification and susceptibility testing. See FIG. 1 for participant disposition and study outline.
(§5) Susceptibility testing by CLSI broth microdilution and gradient diffusion (fosfomycin only) was conducted (CLSI, 2015, Methods for dilution antimicrobial susceptibility tests for bacteria that grow aerobically; approved standard-tenth edition; and CLSI, 2018. Performance Standards for Antimicrobial Susceptibility Testing; Twenty-seventh Informational Supplement M100-S28). Inclusion in the microbiological intent-to-treat population (micro-ITT), required growth of a qualifying baseline uropathogen (≥10^5 CFU/mL). See FIG. 2 for the baseline algorithm.
A general note: Broth dilution looks for growth in wells or tubes with falling amounts of substance.

The next assay has as its system K. pneumoniae. Described as above. The format is cell-based, Klebsiella pneumoniae. Particulars: baseline isolate. As for the experimental part: as §4, §5
The next assay deals with C. koseri. Described as above. In kind it is cell-based, Citrobacter koseri. Particulars: baseline isolate. As for the experimental part:
as §4, §5

Another assay has as its system viridans streptococci. In words: MIC by CLSI broth microdilution, Example 5 Method 1. The format is cell-based. Particulars: 105 isolates. As for the experimental part: Gepotidacin was tested against 101 coagulase-negative staphylococci and 105 viridans streptococci in serial two-fold dilutions and the minimum inhibitory concentration (MIC) was determined as the lowest concentration of the compound that inhibited visible growth. All of the clinical isolates were collected in 2009-2012 from patient infections from North America, Europe, Latin America and Asia-Pacific medical centers and were mainly obtained from patients with documented nosocomial and community-acquired respiratory tract infections, bloodstream infections and skin and skin structure infections. Ceftriaxone, meropenem, penicillin, levofloxacin, moxifloxacin and linezolid were included as comparators when testing the viridans streptococci isolates. Oxacillin, levofloxacin, moxifloxacin and linezolid, were included as comparators when testing the coagulase-negative staphylococci isolates. MICs were determined by broth microdilution according to CLSI methods.

For a further assay, the system named is qualifying uropathogens. In words: Phase IIa baseline uropathogen susceptibility testing (CLSI broth microdilution). In kind it is cell-based. As for the experimental part:
as §4, §5

Take `C[C@@H](O)[C@H]1C(=O)N2C(C(=O)O)=C(SCCN=CN)C[C@H]12` [imipenem]: the results for the MIC90 in assay [1] and in assay [2] were 8 µg/mL and 0.5 µg/mL, respectively.
`CC1(C)S[C@@H]2[C@H](NC(=O)[C@H](N)c3ccccc3)C(=O)N2[C@H]1C(=O)O` [Ampicillin]: the MIC in the assay with E. coli (Participant #2 (E. coli)) is greater than 64 µg/mL; in the assay with E. coli (Participant #3 (E. coli)) it was 2 µg/mL (≈ 5.72 µM); in the assay with E. coli (Participant #4 (E. coli)), 1 µg/mL (≈ 2.86 µM); in the assay with E. coli (Participant #5 (E. coli, MDR and fluoroquinolone-resistant)), greater than 64 µg/mL; in the assay on E. coli (Participant #6 (E. coli, MDR)), greater than 64 µg/mL. The “Susceptibility of the qualifying uropathogen” value in the assay on K. pneumoniae and in the assay with C. koseri was “resistant” throughout.
With `COc1c(N2C[C@@H]3CCCN[C@@H]3C2)c(F)cc2c(=O)c(C(=O)O)cn(C3CC3)c12` [moxifloxacin], the MIC90 was 0.25 µg/mL (≈ 0.623 µM) in the assay with viridans streptococci, greater than 8 µg/mL in assay [1] and 8 µg/mL in assay [2].
For the compound piperacillin/tazobactam, in the assay on qualifying uropathogens, the “Resistance among the baseline uropathogens recovered” value was “None of the baseline uropathogens recovered were resistant”. Moreover, the “overall MIC90” value in assay [1] and in assay [2] was 16 µg/mL throughout.
For the compound `Cc1ncc([N+](=O)[O-])n1CCO` [metronidazole], the MIC90 in assay [1] was 0.5 µg/mL; in assay [2], 2 µg/mL.
As for `C[C@@H](O)[C@H]1C(=O)N2C(C(=O)O)=C(S[C@@H]3CN[C@H](C(=O)N(C)C)C3)[C@H](C)[C@H]12` [meropenem], the MIC90 with viridans streptococci was 0.25 µg/mL (≈ 0.652 µM). In addition, the “Resistance among the baseline uropathogens recovered” value with qualifying uropathogens is “None of the baseline uropathogens recovered were resistant”.
